{"source": "patent US8080517B2", "about": "“Cell-permeable peptide inhibitors of the JNK signal transduction pathway” (Xigen SA, priority 2005, dated 2011)", "origin": "cited, not measured here", "key": {"[1]": {"settings": "transient global ischemia; cited from earlier work"}, "[2]": {"system": "chick embryonic dorsal root ganglion, sympathetic, ciliary and motor neurons", "settings": "cited from earlier work"}, "[3]": {"system": "primary embryonic cultures and differentiated PC12 cells", "settings": "after trophic withdrawal; also in mice treated with 1-methyl-4-phenyl tetrahydropyridine; cited from earlier work"}}}
{"smiles": "N#CC(c1ccnc(NCCc2cccnc2)n1)c1nc2ccccc2s1", "note": "(stereo not drawn) [AS601245]", "values": [{"measurement": "delayed loss of hippocampal CA1 neurons", "setting": "[1]", "value": "significant protection against the delayed loss of hippocampal CA1 neurons"}]}
{"smiles": "CCSCc1ccc2c(c1)c1c3c(c4c5cc(CSCC)ccc5n5c4c1n2[C@H]1C[C@](O)(C(=O)OC)[C@]5(C)O1)CNC3=O", "note": "[CEP-1347]", "values": [{"measurement": "long term-survival of cultured neurons", "setting": "[2]", "value": "can promote long term-survival"}, {"measurement": "neuronal survival", "setting": "[3]", "value": "promotes neuronal survival at dosages that inhibit activation of the c-Jun amino-terminal kinases (JNKs)"}]}
